Patent US5763435A, “Sulfate conjugates of ursodeoxycholic acid, and their beneficial use in inflammatory disorders” (priority 1995, dated 1998)
“Also recorded” adds a separate entry of the source.

What was measured:
fecal bile acids = assay: Fecal bile acid excretion after oral administration; type: in vivo, Sprague-Dawley rats; conditions: for Total fecal bile acid excretion: pooled feces day 4; for Fecal lithocholate/deoxycholate ratio (in words) / Fecal lithocholic acid excretion (in words): vs control
Experimental: (§1) Male Sprague-Dawley rats (Harlan Sprague-Dawley, Inc., Indianapolis, Ind.), weighing 210-290 g, were maintained on a 12-hour light-dark cycle and fed standard laboratory chow ad libitum for 3 days. The animals were then transferred to metabolic cages in which they were housed individually and fed the same diet. UDCA, UDCA 3-sulfate, UDCA 7-sulfate, and UDCA 3,7-disulfate were administered by gavage at a dose of 250 mg/day for 4 consecutive days. Each group comprised 3-6 rats. Body weights of the animals were measured each day. On day 5, the animals were killed by exsanguination under ether anesthesia. Plasma was collected and frozen at -20° C. The liver was removed, rinsed in normal saline, and flash-frozen in liquid nitrogen. Urine and feces were collected every 24 hours and frozen at -20° C. All animals received humane care in compliance with the "Guide for the Care and Use of Laboratory Animals" prepared by the National Academy of Sciences (National Institutes of Health publication no. 86-23, revised in 1985).
Intestinal contents were weighed and dissected into small pieces. In each group, feces (100 mg) from all animals were pooled on day 4 of the study and then ground into a fine paste. All samples were sonicated and sequentially refluxed in 80% methanol for 2 hours and chloroform/methanol (1:1) for 1 hour. Samples were taken to dryness, and the dried extracts were resuspended in 80% methanol (20 mL). Fractions of the methanolic extract (1/40 of intestinal contents and 1/20 of feces samples) were removed and the internal standard nordeoxycholic acid (10 μg) was added. This extract was diluted with 0.01 mol/L acetic acid (20 mL) and passed first through a column of Lipidex 1000 (bed size, 4×1 cm; Packard Instrument Co., Groningen, The Netherlands) and then through a Bond-Elut C18, cartridge (Analytichem, Harbor City, Calif.). Bile acids were recovered by elution of the Lipidex 1000 column and the Bond-Elut cartridge with methanol (20 mL and 5 mL, respectively), and the combined extracts were taken to dryness. Unconjugated bile acids were isolated and separated from neutral sterol and conjugated bile acids by lipophilic anion exchange chromatography on diethylaminohydroxypropyl Sephadex LH-20 (Lipidex-DEAP; Package Instrument Co.). Recovery of unconjugated bile acids was achieved by elution with 0.1 mol/L acetic acid in 72% ethanol (7 mL) followed by evaporation of the solvents. Total conjugated bile acids were recovered with 9 mL of 0.3 mol/L acetic acid in 72% ethanol, pH 9.6. Salts were removed by passage through a Bond-Elut C18 cartridge after addition of nordeoxycholic acid (10 μg), and conjugated bile acids were recovered by elution with 5 mL of methanol. Solvolysis was performed in a mixture of methanol (1 mL), distilled tetrahydrofuran (9 mL), and 1 mol/L trifluoracetic acid in dioxane (0.1 mL) and heated to 45° C for 2 hours. After solvolysis, unconjugated bile acids were isolated by chromatography on Lipidex-DEAP. Methyl ester derivatives were prepared by dissolving the sample in methanol (0.3 mL) and reacting with 2.7 mL of freshly distilled ethereal diazomethane. After evaporation of the reagents, the methyl ester derivatives were converted to trimethylsilyl ethers by the addition of […] of Tri-Sil reagent (Pierce Chemicals, Rockford, Ill.). A column of Lipidex 5000 (Packard Instrument Co.) was used to remove derivatizing reagents and to purify the sample.
GC-MS analysis was performed using a Finnigan 4635 mass spectrometer (Finnigan Inc., San Jose, Calif.) that housed an identical gas chromatography column operated under the same conditions. Electron ionization (70 eV) mass spectra were recorded over the mass range of 50-800 daltons by repetitive scanning of the eluting components. […]

[1] = tested on: Principal Bile Acids in Liver; assay: Bile acid composition of liver tissue after oral administration (GC-MS); type: in vivo, Sprague-Dawley rats
Experimental: as §1
Samples of liver (100 mg) were ground to a fine paste, and bile acids were extracted by reflux and passage through a column of Lipidex 1000 as described above for intestinal contents and feces. Group separation of bile acids, according to their mode of conjugation was achieved by lipophilic anion-exchange chromatography. Extracts from each animal were pooled, and bile acids and their conjugates were separated using Lipidex-DEAP and stepwise elution of the gel bed with the following buffers: 0.1 mol/L acetic acid in 72% ethanol (unconjugated bile acids); 0.3 mol/L acetic acid in 72% ethanol, pH 5.0 (glycine conjugates); 0.15 mol/L acetic acid in 72% ethanol, pH 6.5 (taurine conjugates); and 0.3 mol/L acetic acid in 72% ethanol, pH 9.6 (sulfate conjugates). After evaporation of the buffers, sulfated bile acids were solvolyzed, whereas amidated conjugates were hydrolyzed with 50 U of cholylglycine hydrolase (Sigma Chemical Co.) in 2.5 mL of 0.2 mol/L phosphate buffer, pH 5.6, at 37° C. overnight. The resulting unconjugated bile acids were isolated on Lipidex-DEAP, and the methyl ester-trimethylsilyl ether derivatives were prepared as described above.
GC-MS analysis was performed using a Finnigan 4635 mass spectrometer (Finnigan Inc., San Jose, Calif.) that housed an identical gas chromatography column operated under the same conditions. Electron ionization (70 eV) mass spectra were recorded over the mass range of 50-800 daltons by repetitive scanning of the eluting components. Identification of bile acids was made on the basis of the gas chromatography retention index relative to a homologous series of n-alkanes, referred to as the methylene unit value, and the mass spectrum compared with authentic standards. Quantification of bile acids was achieved using gas chromatography by comparing the peak height response of the individual bile acids with the peak height response obtained from the internal standard.
Data are expressed as mean±SEM or as mean values of all animals when extracts were pooled before analysis. Results from different groups were compared using paired and unpaired two-tailed Student's t-test. P values of <0.05 were considered statistically significant.

| SMILES | Increase of fecal lithocholic acid/deoxycholic acid ratio vs normal rat feces (fecal bile acids) | Total fecal bile acid excretion (fecal bile acids) [mg/g feces] | Fecal lithocholate/deoxycholate ratio (in words) (fecal bile acids) | Fecal lithocholic acid excretion (in words) (fecal bile acids) | Chenodeoxycholic acid concentration in liver ([1]; oral gavage 250 mg/day, 4 days) [nmol/g] | Chenodeoxycholic acid percent of hepatic bile acids ([1]; oral gavage 250 mg/day, 4 days) [%] | Cholic acid concentration in liver ([1]; oral gavage 250 mg/day, 4 days) [nmol/g] | Cholic acid percent of hepatic bile acids ([1]; oral gavage 250 mg/day, 4 days) [%] | Deoxycholic acid concentration in liver ([1]; oral gavage 250 mg/day, 4 days) [nmol/g] | Deoxycholic acid percent of hepatic bile acids ([1]; oral gavage 250 mg/day, 4 days) [%] | Lithocholic acid concentration in liver ([1]; oral gavage 250 mg/day, 4 days) [nmol/g] | Lithocholic acid percent of hepatic bile acids ([1]; oral gavage 250 mg/day, 4 days) [%] | Total bile acid concentration in liver ([1]; oral gavage 250 mg/day, 4 days) [nmol/g] | UDCA percent of hepatic bile acids ([1]; oral gavage 250 mg/day, 4 days) [%] | Δ^22-UDCA concentration in liver ([1]; oral gavage 250 mg/day, 4 days) [nmol/g] | Δ^22-UDCA percent of hepatic bile acids ([1]; oral gavage 250 mg/day, 4 days) [%] | Δ^22-β-Muricholic acid concentration in liver ([1]; oral gavage 250 mg/day, 4 days) [nmol/g] | Δ^22-β-Muricholic acid percent of hepatic bile acids ([1]; oral gavage 250 mg/day, 4 days) [%] | Δ^22-ω-Muricholic acid concentration in liver ([1]; oral gavage 250 mg/day, 4 days) [nmol/g] | Δ^22-ω-Muricholic acid percent of hepatic bile acids ([1]; oral gavage 250 mg/day, 4 days) [%] | further results |
| --- | --- | --- | --- | --- | --- | --- | --- | --- | --- | --- | --- | --- | --- | --- | --- | --- | --- | --- | --- | --- | --- |
| C[C@H](CCC(=O)O)[C@H]1CC[C@H]2[C@@H]3[C@@H](O)C[C@@H]4C[C@H](OS(=O)(=O)O)CC[C@]4(C)[C@H]3CC[C@]12C [UDCA-3S, ursodeoxycholic acid 3-sulfate] | 11 fold | 10.70 | markedly increased | large increase in the fecal lithocholic acid concentration | 9.2 | 2.5 | 86.6 | 23.9 | 52.6 | 14.5 | 3.2 | 0.9 | 361.7 | 15.6 | 31.3 | 8.6 | 36.3 | 10.0 | 6.3 | 1.7 | α-Muricholic acid concentration in liver ([1]; oral gavage 250 mg/day, 4 days): 6.0 nmol/g; α-Muricholic acid percent of hepatic bile acids ([1]; oral gavage 250 mg/day, 4 days): 1.6%; β-Muricholic acid concentration in liver ([1]; oral gavage 250 mg/day, 4 days): 65.4 nmol/g; β-Muricholic acid percent of hepatic bile acids ([1]; oral gavage 250 mg/day, 4 days): 18.1%; ω-Muricholic acid concentration in liver ([1]; oral gavage 250 mg/day, 4 days): 8.1 nmol/g; ω-Muricholic acid percent of hepatic bile acids ([1]; oral gavage 250 mg/day, 4 days): 2.2%; Hepatic UDCA concentration change (in words) ([1]; oral, vs control): increased concentrations and proportions of liver tissue UDCA; Conjugation of UDCA in liver tissue ([1]; oral, listed as C-3 sulfate): biotransformed by conjugation, mainly with taurine; Conjugation of UDCA in liver tissue ([1]; oral, listed as UDCA 3-sulfate): significant desulfation and amidation |
| C[C@H](CCC(=O)O)[C@H]1CC[C@H]2[C@@H]3[C@@H](O)C[C@@H]4C[C@H](O)CC[C@]4(C)[C@H]3CC[C@]12C [UDCA, 3 alpha, 7 beta-dihydroxy-5 beta-cholan-24oic acid, reference compound] | more than 20 fold | 14.85 | markedly increased | increased markedly from control values; also recorded: large increase in the fecal lithocholic acid concentration | 12.4 | 3.7 | 42.3 | 12.7 | 22.5 | 6.8 | 8.0 | 2.4 | 331.8 | 30.0 | 37.4 | 11.3 | 20.9 | 6.3 | 4.8 | 1.4 | Fecal deoxycholic acid (in words) (fecal bile acids): increase in deoxycholic acid in the feces; Form of UDCA excreted in feces (fecal bile acids): almost exclusively found in the unconjugated form; Conjugation of UDCA in liver tissue ([1]; oral): biotransformed by conjugation, mainly with taurine; also recorded: predominantly conjugated by amidation; Fold decrease of liver tissue cholic acid concentration ([1]; oral): ~4 fold; UDCA concentration in liver ([1]; oral gavage 250 mg/day, 4 days): 99.6 nmol/g; α-Muricholic acid concentration in liver ([1]; oral gavage 250 mg/day, 4 days): 16.1 nmol/g; α-Muricholic acid percent of hepatic bile acids ([1]; oral gavage 250 mg/day, 4 days): 4.8%; β-Muricholic acid concentration in liver ([1]; oral gavage 250 mg/day, 4 days): 60.6 nmol/g; β-Muricholic acid percent of hepatic bile acids ([1]; oral gavage 250 mg/day, 4 days): 18.3%; ω-Muricholic acid concentration in liver ([1]; oral gavage 250 mg/day, 4 days): 6.3 nmol/g; ω-Muricholic acid percent of hepatic bile acids ([1]; oral gavage 250 mg/day, 4 days): 1.9%; Hepatic UDCA concentration change (in words) ([1]; oral, vs control): increased concentrations and proportions of liver tissue UDCA; also recorded: increased markedly; Hepatic lithocholic acid change (in words) ([1]; oral, vs control): increased hepatic lithocholic acid concentration |
